Columns and labels:
[1] = Solubility / dissolution in aqueous solutions without organic solvent; format: physicochemical; settings: for dissolution of the intermediate lyophilized taxane in aqueous Solutol HS15 solution: aqueous Solutol HS15 mixture with excipient (mannitol/citric acid or povidone), no organic solvent
Description: The intermediate lyophilized taxane is dissolved in aqueous solutions of polymers or a mixture of said polymers, namely Lutrol™ F68, Solutol™ HS15, povidone K12 PF or K17 PF.

[2] = Apparent density of the lyophilizate; format: physicochemical; settings: intermediate lyophilized taxane (first lyophilization from organic solvent)
Description: The apparent density of the lyophilizate is defined as the quotient between the mass of the lyophilization cake in grams and its volume in milliliters.
The apparent density of the lyophilizates has been carefully assessed, and after a great number of experiments the apparent density values in which the technical effects of the invention are possible such as easy reconstitution of said solid composition of lyophilized taxane in an aqueous solution free from organic solvent were obtained. […] In other words, the lower the apparent density of the lyophilization cake, the fastest its dissolution. Also, if the apparent density of the solid composition of lyophilized taxane of the present invention is very low, the concentration of the tensoactive is not enough to maintain said taxane in solution, and said taxane precipitates rapidly.

[3] = Chemical degradation of docetaxel in aqueous tensoactive solution; format: physicochemical; settings: pH maintained at values higher than 6
[4] = after administration to mammals, compared to polysorbates; cited from earlier work
[5] = estimated by the World Health Organization; cited from earlier work

Compound | dissolution of the intermediate lyophilized taxane in aqueous Solutol HS15 solution [1] | apparent density [2] [g/mL] | other results
CC(=O)O[C@@]12CO[C@@H]1C[C@H](O)[C@@]1(C)C(=O)[C@H](O)C3=C(C)[C@@H](OC(=O)[C@H](O)[C@@H](NC(=O)OC(C)(C)C)c4ccccc4)C[C@@](O)([C@@H](OC(=O)c4ccccc4)[C@H]21)C3(C)C [Example 1, docetaxel] | readily dissolved | 0.025 | –
CC(=O)O[C@@]12CO[C@@H]1C[C@H](O)[C@@]1(C)C(=O)[C@H](O)C3=C(C)[C@@H](OC(=O)[C@H](O)[C@@H](NC(=O)OC(C)(C)C)c4ccccc4)C[C@@](O)([C@@H](OC(=O)c4ccccc4)[C@H]21)C3(C)C [Example 2, docetaxel] | readily dissolved | 0.014 | –
CC(=O)O[C@@]12CO[C@@H]1C[C@H](O)[C@@]1(C)C(=O)[C@H](O)C3=C(C)[C@@H](OC(=O)[C@H](O)[C@@H](NC(=O)OC(C)(C)C)c4ccccc4)C[C@@](O)([C@@H](OC(=O)c4ccccc4)[C@H]21)C3(C)C [docetaxel] | – | – | solubility in aqueous solutions ([1]; commercially available API, absence of added organic solvents): not soluble; degradation to 7-epidocetaxel [3]: ≤ 60%
Polyethylene glycol-15-hydroxystearate [Solutol HS15] | – | – | histaminic release [4]: very low histaminic release
polysorbate 80 | – | – | maximum daily dose [5]: 25 mg/kg of body weight

Source: US20090215882A1, “LYOPHILIZED SOLID TAXANE COMPOSITION, A PROCESS FOR PREPARING SAID SOLID COMPOSITION, A PHARMACEUTICAL FORMULATION AND A KIT FOR SAID FORMULATION” (ERIOCHEM, S.A., priority 2006, published 2009)
